Assay results published in US20250136595A1, “ACYLATED HETEROCYCLIC QUINAZOLINE DERIVATIVES AS INHIBITORS OF ERBB2” (Enliven Inc., priority 2022, published 2025).
Structures can show the parent of a compound that is named as a salt.

What was measured:
[1] = molecular target: T1, phosphorylated EGFR (pEGFR) (Homo sapiens, UniProt P00533); test: Detection of phosphorylated EGFR (pEGFR) in EGF-stimulated A431 cells (AlphaLISA); assay type: cell-based; settings: A431 cells (10% FBS), 4 hours incubation, EGF 30 ng/mL for 10 minutes
T1 construct: performed to measure phosphorylated EGFR levels using A431 cells; endogenous in cells; host or cells: A431
T1 sequence (P00533 25-1210): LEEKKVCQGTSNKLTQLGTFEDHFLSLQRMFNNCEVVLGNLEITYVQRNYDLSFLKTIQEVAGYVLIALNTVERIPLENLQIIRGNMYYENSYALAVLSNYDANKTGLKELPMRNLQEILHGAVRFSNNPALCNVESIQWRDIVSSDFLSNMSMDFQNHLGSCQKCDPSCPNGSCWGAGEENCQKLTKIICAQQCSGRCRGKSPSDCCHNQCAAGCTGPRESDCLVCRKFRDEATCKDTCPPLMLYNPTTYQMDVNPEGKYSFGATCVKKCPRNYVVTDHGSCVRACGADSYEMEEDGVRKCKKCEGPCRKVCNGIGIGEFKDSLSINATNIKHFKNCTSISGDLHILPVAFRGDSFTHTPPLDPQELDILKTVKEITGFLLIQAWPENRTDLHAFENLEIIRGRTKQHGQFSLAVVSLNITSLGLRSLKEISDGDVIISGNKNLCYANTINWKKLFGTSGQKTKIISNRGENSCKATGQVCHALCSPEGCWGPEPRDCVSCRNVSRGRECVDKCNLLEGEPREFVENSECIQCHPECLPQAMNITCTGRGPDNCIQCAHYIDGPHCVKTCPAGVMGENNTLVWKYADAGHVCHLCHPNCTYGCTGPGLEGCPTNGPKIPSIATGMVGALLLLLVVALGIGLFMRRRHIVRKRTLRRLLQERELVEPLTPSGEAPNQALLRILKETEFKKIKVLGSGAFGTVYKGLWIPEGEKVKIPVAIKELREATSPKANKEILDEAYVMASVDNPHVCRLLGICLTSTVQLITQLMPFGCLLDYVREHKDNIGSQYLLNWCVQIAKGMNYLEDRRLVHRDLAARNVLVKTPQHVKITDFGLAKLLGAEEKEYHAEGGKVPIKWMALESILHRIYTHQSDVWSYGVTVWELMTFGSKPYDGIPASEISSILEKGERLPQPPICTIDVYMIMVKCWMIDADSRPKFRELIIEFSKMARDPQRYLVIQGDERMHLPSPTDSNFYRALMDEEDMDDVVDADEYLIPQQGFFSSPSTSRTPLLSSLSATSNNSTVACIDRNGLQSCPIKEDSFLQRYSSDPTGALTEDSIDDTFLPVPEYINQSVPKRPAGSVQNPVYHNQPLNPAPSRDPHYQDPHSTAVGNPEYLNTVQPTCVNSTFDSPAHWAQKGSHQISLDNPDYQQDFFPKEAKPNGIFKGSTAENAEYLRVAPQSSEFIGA
In short: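 Cells in 10% FBS treated with compound 4 h at 37° C., then stimulated 10 min with 30 ng/mL EGF, lysed, and pEGFR measured by AlphaLISA. Inhibition normalized to DMSO and staurosporine controls; IC50 from four-parameter logistic fit.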

Ba/F3 ERBB2 YVMA = Ba/F3 ERBB2 YVMA (Homo sapiens, UniProt P04626, DUP772-775, cells depend on it); test: Cell viability assay (CellTiter Glo) in Ba/F3 cells engineered to express ERBB2 YVMA; assay type: cell-based, mouse; settings: Ba/F3 cells expressing human ERBB2 YVMA mutant, 72 hours, % viability, read-out: Ba/F3 ERBB2 YVMA IC50
Ba/F3 ERBB2 YVMA, sequence (P04626 with tags, fused parts or gaps DUP772-775): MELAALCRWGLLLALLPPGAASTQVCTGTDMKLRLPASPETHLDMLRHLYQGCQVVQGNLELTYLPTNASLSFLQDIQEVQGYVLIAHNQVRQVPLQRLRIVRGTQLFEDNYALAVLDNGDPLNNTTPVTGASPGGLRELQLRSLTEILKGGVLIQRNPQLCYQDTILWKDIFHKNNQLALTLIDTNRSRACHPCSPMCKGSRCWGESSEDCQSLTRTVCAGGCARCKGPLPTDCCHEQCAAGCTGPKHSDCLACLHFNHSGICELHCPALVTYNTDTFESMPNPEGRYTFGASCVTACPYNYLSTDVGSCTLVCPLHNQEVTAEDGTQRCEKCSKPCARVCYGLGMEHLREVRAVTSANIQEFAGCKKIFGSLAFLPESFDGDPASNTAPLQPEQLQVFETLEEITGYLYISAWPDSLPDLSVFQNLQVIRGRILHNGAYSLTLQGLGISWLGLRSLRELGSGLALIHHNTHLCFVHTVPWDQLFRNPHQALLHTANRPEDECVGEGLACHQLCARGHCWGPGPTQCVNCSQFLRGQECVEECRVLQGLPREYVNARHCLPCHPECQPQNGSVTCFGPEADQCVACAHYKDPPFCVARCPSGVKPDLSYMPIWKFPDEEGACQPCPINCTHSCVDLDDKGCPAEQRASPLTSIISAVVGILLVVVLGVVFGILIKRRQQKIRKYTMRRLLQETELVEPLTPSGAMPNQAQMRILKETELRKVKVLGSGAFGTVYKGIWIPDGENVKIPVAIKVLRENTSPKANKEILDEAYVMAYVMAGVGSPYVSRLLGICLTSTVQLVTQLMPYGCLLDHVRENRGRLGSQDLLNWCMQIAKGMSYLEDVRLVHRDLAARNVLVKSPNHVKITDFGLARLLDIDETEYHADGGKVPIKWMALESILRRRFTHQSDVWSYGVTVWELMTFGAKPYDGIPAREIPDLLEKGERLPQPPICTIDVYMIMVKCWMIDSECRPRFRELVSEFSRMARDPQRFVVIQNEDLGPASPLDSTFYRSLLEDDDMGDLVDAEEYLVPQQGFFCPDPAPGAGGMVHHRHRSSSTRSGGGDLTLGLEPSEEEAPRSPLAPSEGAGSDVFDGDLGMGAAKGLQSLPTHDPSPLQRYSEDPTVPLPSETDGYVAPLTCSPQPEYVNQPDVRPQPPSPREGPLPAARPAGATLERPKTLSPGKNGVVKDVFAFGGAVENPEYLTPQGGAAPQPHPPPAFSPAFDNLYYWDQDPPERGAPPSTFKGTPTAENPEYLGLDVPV
In short: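 IL-3-independent mouse Ba/F3 line stably transduced with human ERBB2 YVMA, seeded at 3000 cells/well, exposed to serially diluted compound (≤0.1% DMSO) for 72 h at 37° C. ATP read by CellTiter Glo luminescence, normalised to DMSO and media-only controls; sigmoidal nonlinear regression fit.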

[2] = molecular target: T2, phosphorylated ERBB2 (pERBB2) (Homo sapiens, UniProt P04626); test: Detection of phosphorylated ERBB2 (pERBB2) by ELISA in BT-474 cells; assay type: cell-based; settings: four hour incubation with compound
T2 construct: endogenous in cells; host or cells: BT-474
T2 sequence (P04626 23-1255): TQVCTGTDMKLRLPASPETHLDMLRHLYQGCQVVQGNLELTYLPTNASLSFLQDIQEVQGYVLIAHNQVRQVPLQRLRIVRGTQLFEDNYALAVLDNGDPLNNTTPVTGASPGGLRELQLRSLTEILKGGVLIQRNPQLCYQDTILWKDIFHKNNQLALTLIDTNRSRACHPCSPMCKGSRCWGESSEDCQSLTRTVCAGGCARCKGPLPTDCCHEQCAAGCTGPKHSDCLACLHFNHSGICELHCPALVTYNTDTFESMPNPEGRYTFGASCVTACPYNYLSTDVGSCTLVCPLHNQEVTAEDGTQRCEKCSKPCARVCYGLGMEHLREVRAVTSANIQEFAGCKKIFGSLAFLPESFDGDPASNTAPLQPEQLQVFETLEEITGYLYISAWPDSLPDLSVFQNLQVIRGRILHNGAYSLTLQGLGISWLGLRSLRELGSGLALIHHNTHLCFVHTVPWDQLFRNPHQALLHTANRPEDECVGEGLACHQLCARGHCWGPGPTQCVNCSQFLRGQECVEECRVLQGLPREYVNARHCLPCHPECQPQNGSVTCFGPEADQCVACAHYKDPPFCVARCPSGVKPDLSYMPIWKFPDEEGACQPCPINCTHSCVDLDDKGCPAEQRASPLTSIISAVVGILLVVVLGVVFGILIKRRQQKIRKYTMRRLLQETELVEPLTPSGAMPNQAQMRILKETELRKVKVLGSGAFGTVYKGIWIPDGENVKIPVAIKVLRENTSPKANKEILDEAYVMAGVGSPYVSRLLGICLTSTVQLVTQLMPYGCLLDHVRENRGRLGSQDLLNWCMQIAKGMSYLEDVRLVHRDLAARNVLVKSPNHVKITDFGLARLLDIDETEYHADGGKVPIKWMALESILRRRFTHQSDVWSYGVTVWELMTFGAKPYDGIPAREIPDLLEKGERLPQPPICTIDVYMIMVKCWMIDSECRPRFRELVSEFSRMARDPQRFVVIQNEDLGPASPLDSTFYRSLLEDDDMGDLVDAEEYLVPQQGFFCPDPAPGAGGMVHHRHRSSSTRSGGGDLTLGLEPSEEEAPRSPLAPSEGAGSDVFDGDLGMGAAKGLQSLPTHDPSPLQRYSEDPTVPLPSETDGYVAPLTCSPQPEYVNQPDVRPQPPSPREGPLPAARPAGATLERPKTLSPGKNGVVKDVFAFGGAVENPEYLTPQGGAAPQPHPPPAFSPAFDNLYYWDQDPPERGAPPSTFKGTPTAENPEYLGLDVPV
In short: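 BT-474 cells treated 4 h at 37 °C, 5% CO2 with four-fold dilutions (10 μM to 0.01 nM final). Lysates analysed by ELISA for pERBB2, TMB read at OD 450 nm. % relative activity normalised to no-cell (low) and 0.1% DMSO-treated (high) controls.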

IC50 [1]	IC50 [2]	SMILES	GI50 (Ba/F3 ERBB2 YVMA)
> 10000 nM	31.6 nM	Cc1cc(Nc2ncnc3ccc(N4CCN(C(=O)/C=C/CN(C)C)CC4)c(F)c23)ccc1Cc1ccn2ncnc2c1 [Compound 92, (2E)-4-(dimethylamino)-1-(4-{5-fluoro-4-[(3-methyl-4-{[1,2,4]triazolo[1,5-a]pyridin-7-ylmethyl}phenyl)amino]quinazolin-6-yl}piperazin-1-yl) but-2-en-1-one]	110 nM
> 10000 nM	30.7 nM	Cc1cc(Nc2ncnc3ccc(N4CCN(C(=O)/C=C/CN(C)C)[C@H](C)C4)c(F)c23)ccc1Cc1ccn2ncnc2c1 [Compound 93, (2E)-4-(dimethylamino)-1-[(2R)-4-{5-fluoro-4-[(3-methyl-4-{[1,2,4]triazolo[1,5-a]pyridin-7-ylmethyl}phenyl)amino]quinazolin-6-yl}-2-methylpiperazin-1-yl]but-2-en-1-one formate]	49 nM
> 10000 nM	160 nM	Cc1cc(Nc2ncnc3ccc(N4CCN(C(=O)/C=C/CN(C)C)CC4C)c(F)c23)ccc1Cc1ccn2ncnc2c1 (stereo not drawn) [Compound 94, (E)-1-(4-(4-((4-([1,2,4]triazolo[1,5-a]pyridin-7-ylmethyl)-3-methylphenyl)amino)-5-fluoroquinazolin-6-yl)-3-methylpiperazin-1-yl)-4-(dimethylamino)but-2-en-1-one]	> 500 nM
1800 nM	21.2 nM	C=CC(=O)N1CC2CCC(C1)N2c1ccc2ncnc(Nc3ccc(Cc4ccn5ncnc5c4)c(C)c3)c2n1 [Compound 95, 1-(8-{4-[(3-methyl-4-{[1,2,4]triazolo[1,5-a]pyridin-7-ylmethyl}phenyl)amino]pyrido[3,2-d]pyrimidin-6-yl}-3,8-diazabicyclo[3.2.1]octan-3-yl)prop-2-en-1-one]	6.96 nM
7290 nM	63.1 nM	C=CC(=O)N1CCN(c2ncc3ncnc(Nc4ccc(Cc5ccc6c(c5)ncn6C)c(C)c4)c3n2)C[C@H]1C [Compound 96, (R)-1-(2-methyl-4-(8-((3-methyl-4-((1-methyl-1H-benzo[d]imidazol-5-yl)methyl)phenyl)amino)pyrimido[5,4-d]pyrimidin-2-yl)piperazin-1-yl)prop-2-en-1-one]	12.5 nM
4950 nM	24.2 nM	C=CC(=O)N1CCN(c2cc3c(Nc4ccc(Cc5ccc6c(c5)ncn6C)c(C)c4)ncnc3cn2)C[C@H]1C [Compound 97, (R)-1-(2-methyl-4-(4-((3-methyl-4-((1-methyl-1H-benzo[d]imidazol-5-yl)methyl)phenyl)amino)pyrido[3,4-d]pyrimidin-6-yl)piperazin-1-yl)prop-2-en-1-one]	52.4 nM
186 nM	65.6 nM	C=CC(=O)N1CCN(c2ccc3ncnc(Nc4ccc(O[C@@H]5CCCOC5)c(C)c4)c3n2)CC1 [Compound 98, 1-{4-[4-({3-methyl-4-[(3R)-oxan-3-yloxy]phenyl}amino)pyrido[3,2-d]pyrimidin-6-yl]piperazin-1-yl}prop-2-en-1-one]	64.4 nM
> 10000 nM	227 nM	C=CC(=O)N1CCN(c2cc3c(Nc4ccc(CN5CCn6ncnc6C5)c(C)c4)ncnc3cn2)CC1 [Compound 99, 1-(4-{4-[(3-methyl-4-{5H,6H,8H-[1,2,4]triazolo[1,5-a]pyrazin-7-ylmethyl}phenyl)amino]pyrido[3,4-d]pyrimidin-6-yl}piperazin-1-yl)prop-2-en-1-one]	> 500 nM
337 nM	63.7 nM	C=CC(=O)N1CCN(c2cc3c(Nc4ccc(O[C@@H]5CCCOC5)c(C)c4)ncnc3cn2)CC1 [Compound 100, 1-{4-[4-({3-methyl-4-[(3R)-oxan-3-yloxy]phenyl}amino)pyrido[3,4-d]pyrimidin-6-yl]piperazin-1-yl}prop-2-en-1-one]	98.5 nM
> 10000 nM	99 nM	C=CC(=O)N1CCN(c2ccc3ncnc(Nc4ccc(CN5CCn6ncnc6C5)c(C)c4)c3c2)CC1 [Compound 101, 1-(4-{4-[(3-methyl-4-{5H,6H,8H-[1,2,4]triazolo[1,5-a]pyrazin-7-ylmethyl}phenyl)amino]quinazolin-6-yl}piperazin-1-yl)prop-2-en-1-one]	> 500 nM
244 nM	47.6 nM	C=CC(=O)N1CCN(c2ccc3ncnc(Nc4ccc(O[C@@H]5CCCOC5)c(C)c4)c3c2)CC1 [Compound 102, 1-{4-[4-({3-methyl-4-[(3R)-oxan-3-yloxy]phenyl}amino)quinazolin-6-yl]piperazin-1-yl}prop-2-en-1-one]	43.9 nM
2770 nM	16 nM	C=CC(=O)N1CCN(c2cc3c(Nc4ccc(Cc5ccn6ncnc6c5)c(C)c4)ncnc3cn2)CC1 [Compound 103, 1-(4-(4-((4-([1,2,4]triazolo[1,5-a]pyridin-7-ylmethyl)-3-methylphenyl)amino)pyrido[3,4-d]pyrimidin-6-yl)piperazin-1-yl)prop-2-en-1-one]	24.9 nM
> 10000 nM	24.7 nM	C=CC(=O)N1CCN(c2ccc3ncnc(Nc4ccc(Cc5ccn6ncnc6c5)c(C)c4)c3c2)[C@@H](C)C1 [Compound 104, (S)-1-(4-(4-((4-([1,2,4]triazolo[1,5-a]pyridin-7-ylmethyl)-3-methylphenyl)amino)quinazolin-6-yl)-3-methylpiperazin-1-yl)prop-2-en-1-one]	65.1 nM
> 10000 nM	43.9 nM	Cc1cc(Nc2ncnc3ccc(N4CCN(C(=O)/C=C/CN(C)C)C[C@@H]4C)nc23)ccc1Cc1ccn2ncnc2c1 [Compound 105, (2E)-4-(dimethylamino)-1-[(3S)-3-methyl-4-{4-[(3-methyl-4-{[1,2,4]triazolo[1,5-a]pyridin-7-ylmethyl}phenyl)amino]pyrido[3,2-d]pyrimidin-6-yl}piperazin-1-yl]but-2-en-1-one]	145 nM
1060 nM	18.1 nM	C=CC(=O)N1CCN(c2cc3c(Nc4ccc(Oc5ccc6c(c5)ncn6C)c(C)c4)ncnc3cn2)CC1 [Compound 106, 1-{4-[4-({3-methyl-4-[(1-methyl-1,3-benzodiazol-5-yl)oxy]phenyl}amino)pyrido[3,4-d]pyrimidin-6-yl]piperazin-1-yl}prop-2-en-1-one formic acid]	10.3 nM
2880 nM	21.8 nM	C=CC(=O)N1CCN(c2cc3c(Nc4ccc(Oc5ccc6c(c5)ncn6C)c(C)c4)ncnc3cn2)[C@@H](C)C1 [Compound 107, 1-[(3S)-3-methyl-4-[4-({3-methyl-4-[(1-methyl-1,3-benzodiazol-5-yl)oxy]phenyl}amino)pyrido[3,4-d]pyrimidin-6-yl]piperazin-1-yl]prop-2-en-1-one]	73.4 nM
695 nM	10 nM	C=CC(=O)N1CCN(c2ccc3ncnc(Nc4ccc(Oc5ccn6ncnc6c5)c(C)c4)c3n2)CC1(C)C [Compound 108, 1-(4-(4-((4-([1,2,4]triazolo[1,5-a]pyridin-7-yloxy)-3-methylphenyl)amino)pyrido[3,2-d]pyrimidin-6-yl)-2,2-dimethylpiperazin-1-yl)prop-2-en-1-one]	10.9 nM
839 nM	10.2 nM	C=CC(=O)N1CCN(c2cc3c(Nc4ccc(Oc5ccn6ncnc6c5)c(C)c4)ncnc3cn2)CC1 [Compound 109, 1-(4-(4-((4-([1,2,4]triazolo[1,5-a]pyridin-7-yloxy)-3-methylphenyl)amino)pyrido[3,4-d]pyrimidin-6-yl)piperazin-1-yl)prop-2-en-1-one]	13.4 nM
3070 nM	9.86 nM	C=CC(=O)N1CCN(c2ccc3ncnc(Nc4ccc(Cc5ccn6ncnc6c5)c(C)c4)c3n2)CC1 [Compound 110, 1-(4-(4-((4-([1,2,4]triazolo[1,5-a]pyridin-7-ylmethyl)-3-methylphenyl)amino)pyrido[3,2-d]pyrimidin-6-yl)piperazin-1-yl)prop-2-en-1-one]	13.3 nM
5460 nM	28.1 nM	C=CC(=O)N1CCN(c2ncc3ncnc(Nc4ccc(Cc5ccn6ncnc6c5)c(C)c4)c3n2)C[C@H]1C [Compound 111, (R)-1-(4-(8-((4-([1,2,4]triazolo[1,5-a]pyridin-7-ylmethyl)-3-methylphenyl)amino)pyrimido[5,4-d]pyrimidin-2-yl)-2-methylpiperazin-1-yl)prop-2-en-1-one]	22.7 nM
> 10000 nM	33.1 nM	C=CC(=O)N1CCN(c2ccc3ncnc(Nc4ccc(Cc5ccn6ncnc6c5)c(C)c4)c3c2)C[C@H]1C [Compound 112, (R)-1-(4-(4-((4-([1,2,4]triazolo[1,5-a]pyridin-7-ylmethyl)-3-methylphenyl)amino)quinazolin-6-yl)-2-methylpiperazin-1-yl)prop-2-en-1-one]	28 nM
> 10000 nM	31.9 nM	C=CC(=O)N1CCN(c2ncc3ncnc(Nc4ccc(Cc5ccn6ncnc6c5)c(C)c4)c3n2)[C@@H](C)C1 [Compound 113, 1-[(3S)-3-methyl-4-{8-[(3-methyl-4-{[1,2,4]triazolo[1,5-a]pyridin-7-ylmethyl}phenyl)amino]pyrimido[5,4-d][1,3]diazin-2-yl}piperazin-1-yl]prop-2-en-1-one]	8.87 nM
